Laboratory results taken from patent publication US5756458A, “Stabilized potent GRF analogs” (Pharmacia & Upjohn Company, priority 1995, dated 1998).
Where two headings read alike, the source gives them in different places. Where no end group is shown, it is not given here.

How the values were obtained:
[1] = system: primary cultures of rat anterior pituitary cells; details: GH secretion; cited from earlier work
[2] = In vitro stability in bovine plasma; format: in vitro ADME
Method: | ^.noteq. Peptides at 0.03 mM were incubated with bovine plasma at | 37° C. for one hr. Aliquots of 0.1 ml were quenched with 2 ml of | 0.2% aqueous trifluoroacetic acid solution and subjected to solid phase | extraction and HPLC analysis as described in T.M. Kubiak et al. Drug Met. | Disp. 17, 393-397 (1989).

Steers [3] = format: in vivo, steer
Method: | ^# Steers were injected iv with peptides at the dose of 0.01 nmol/kg | and the procedures were as described in W.M. Moseley et al. J. Endocr. | 117, 253-259 (1988). Relative potency was calculated on the basis of the | area under serum growth hormone (GH) curve monitored for 2 hrs after | treatment.

Steers [4] = format: in vivo, steer; details: STUDY II, subcutaneous 0.75 nmol/kg, area under serum GH curve, 6 hrs after treatment, bGRF(1-44)NH2 = 100
Method: | ^.sctn. Steers were injected subcutaneously with peptides at the dose | of 0.75 nmol/kg. Relative potency was calculated on the basis of the area | under serum GH curve monitored for 6 hrs after treatment.

plasma DPP-IV = molecular target: T1, plasma DPP-IV (Bos taurus, UniProt P81425); test: Cleavage after residue 2 by plasma DPP-IV on incubation in bovine plasma in vitro; format: in vitro ADME; parameters: Cleavage after residue 2 (footnote mark ++): key to the marks not given beside the values
T1 construct: from tissue; host or cells: bovine plasma (two different plasma pools)
T1 sequence (P81425 38-765 limits assumed): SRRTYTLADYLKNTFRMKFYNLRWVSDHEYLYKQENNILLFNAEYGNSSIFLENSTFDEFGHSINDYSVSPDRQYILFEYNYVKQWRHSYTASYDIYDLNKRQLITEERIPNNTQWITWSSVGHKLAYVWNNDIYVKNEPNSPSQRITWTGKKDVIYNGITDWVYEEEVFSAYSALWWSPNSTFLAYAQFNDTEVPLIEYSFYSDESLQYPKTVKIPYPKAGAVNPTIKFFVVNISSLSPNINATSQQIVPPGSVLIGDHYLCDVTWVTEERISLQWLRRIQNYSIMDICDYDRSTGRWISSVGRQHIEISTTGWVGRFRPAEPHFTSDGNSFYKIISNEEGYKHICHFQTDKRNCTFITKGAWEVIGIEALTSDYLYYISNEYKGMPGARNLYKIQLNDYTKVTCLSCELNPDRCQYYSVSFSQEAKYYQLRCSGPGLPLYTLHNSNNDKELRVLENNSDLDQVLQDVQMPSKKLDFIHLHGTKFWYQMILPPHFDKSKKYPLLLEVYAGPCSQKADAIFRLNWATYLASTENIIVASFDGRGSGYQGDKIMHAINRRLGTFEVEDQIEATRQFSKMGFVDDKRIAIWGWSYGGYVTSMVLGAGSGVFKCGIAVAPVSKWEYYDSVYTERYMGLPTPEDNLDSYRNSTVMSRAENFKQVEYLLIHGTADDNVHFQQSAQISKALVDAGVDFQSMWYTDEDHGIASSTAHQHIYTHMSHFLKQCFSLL
Method: Evidence of the improved metabolic stability of the compounds of this invention (when compared to native GRF) is illustrated in Table I by the in vitro stability data provided. It is noteworthy that in bovine plasma in vitro, the analogs having Thr^2, Val^2, Ile^2 or Leu^2 were not cleaved after residue 2 by plasma DPP-IV under the experimental conditions used in the study (one hour plasma incubation).
++ No cleavage after residue 2 was observed upon incubation in bovine
plasma in vitro over a 1 hr incubation period.

[5] = system: rat pituitary cell cultures; test: Growth hormone (GH) release in rat pituitary cell cultures in vitro (FIG. 1); format: cell-based; details: Leu^27 -bGRF(1-29)NH2 assay standard
Method: Effect of analogs of Thr^2, Ala^15, Leu^27 -bGRF(1-29)NH2 on growth hormone (GH) release in rat pituitary cell cultures in vitro. The assay was performed according to procedure of Frohman and Downs, Methods Enzymol. 124, 371-389 (1986). […] Leu^27 -bGRF(1-29)NH2 was used as the assay standard.

meal-fed Holstein steers = test: Mean serum GH in meal-fed Holstein steers after intravenous injection (FIG. 2); format: in vivo; details: dose of 0.01 nmol/kg (10 pmol/kg)
Method: The enhanced in vivo potency of the compounds of this invention where R19 is Val or Ile is illustrated in FIGS. 1 and 2.
Mean concentration of serum growth hormone (GH) in meal-fed Holstein steers after intravenous injection (10 pmol/kg) of GRF analogs. The assay was performed as described by Moseley et al., J. Endocrinol. 117, 252-259 (1988). Bovine GRF(1-44)NH2 was used as the assay standard.

[6] = bovine plasma, STUDY II, plasma pool 2, peptide 0.03 mM, bovine plasma, 37° C., one hr, read-out: In vitro stability (% Inact peptide after 1 hr)
[7] = bovine plasma, STUDY I, plasma pool 1, peptide 0.03 mM, bovine plasma, 37° C., one hr, read-out: In vitro stability (% Inact peptide after 1 hr)

H-Tyr-Ala-Asp-Ala-Ile-Phe-Ser-Ser-Ala-Tyr-Arg-Arg-Leu-Leu-Ala-Gln-Leu-Ala- Ser-Arg-Arg-Leu-Leu-Gln-Glu-Leu-Leu-Ala-Arg-NH2 /OH [amide analog] (H-YADAIFSSAYRRLLAQLASRRLLQELLAR-NH2) [29-amino acid analog of hGRF designed by G. Velicelebi, et al., amide form]
Potency relative to hGRF(1-40)OH (times as potent) [1]: 1.57

H-Tyr-Ala-Asp-Ala-Ile-Phe-Ser-Ser-Ala-Tyr-Arg-Arg-Leu-Leu-Ala-Gln-Leu-Ala- Ser-Arg-Arg-Leu-Leu-Gln-Glu-Leu-Leu-Ala-Arg-NH2 /OH [free acid form] (H-YADAIFSSAYRRLLAQLASRRLLQELLAR-OH) [29-amino acid analog of hGRF designed by G. Velicelebi, et al., free acid form]
Potency relative to hGRF(1-40)OH (times as potent) [1]: 1/6

H-YIDAIFTNSYRKVLAQLSARKLLQDILNR-NH2 [Ile^2,Ala^15,Leu^27-bGRF(1-29)NH2]
remaining at 1 h, 0.03 mM [2, 6]: 80.3% | Expected potency relative to isomer Leu^2 Ala^15 Leu^27 bGRF(1-29)NH2 when the ED50 of each is determined and compared (Steers [3]; extrapolated from relative in vivo potency at 0.01 nmol/kg, ED50 not determined): 10-20 times | In vivo relative potency sc (Steers [4]): 16c

H-YTDAIFTNSYRKVLAQLSARKLLQDILNR-NH2 [Thr^2,Ala^15,Leu^27-bGRF(1-29)NH2]
remaining at 1 h, 0.03 mM ([2]; plasma, In vitro stability (% Inact peptide after 1 hr)): 91.1% | Cleavage after residue 2 (footnote mark ++) (plasma DPP-IV): ++ | DPP-IV related cleavage (plasma DPP-IV): slight DPP-IV related cleavage

H-YTDAIFTNSYRKVLAQLSVRKLLQDILNR-NH2
GH-releasing bioactivity in vitro as compared with Thr^2, Ala^15, Leu^27 -bGRF(1-29)NH2 [5]: increased | In vivo bioactivity compared with native GRF (meal-fed Holstein steers): more bioactive than the native GRF

H-YVDAIFTNSYRKVLAQLSARKLLQDILNR-NH2 [Val^2,Ala^15,Leu^27-bGRF(1-29)NH2]
remaining at 1 h, 0.03 mM [2, 6]: 83.4%

YADAIFTNSYRKVLAQLSARKLLQDILNR-NH2 [Ala^15,Leu^27-bGRF(1-29)NH2, reference compound]
remaining at 1 h, 0.03 mM [2, 7]: 56.2%

YADAIFTNSYRKVLGQLSARKLLQDILNR-NH2 [Leu^27-bGRF(1-29)NH2, reference compound]
remaining at 1 h, 0.03 mM [2, 7]: 39.8% | remaining at 1 h, 0.03 mM [2, 6]: 46.8%

YLDAIFTNSYRKVLAQLSARKLLQDILNR-NH2 [Leu^2,Ala^15,Leu^27-bGRF(1-29)NH2, reference compound]
remaining at 1 h, 0.03 mM [2, 6]: 86.3%

YTDAIFTNSYRKVLAQLSIRKLLQDILNR-NH2
GH-releasing bioactivity in vitro as compared with Thr^2, Ala^15, Leu^27 -bGRF(1-29)NH2 [5]: unchanged | In vivo bioactivity compared with native GRF (meal-fed Holstein steers): more bioactive than the native GRF

YTDAIFTNSYRKVLAQLSLRKLLQDILNR-NH2 [Leu^19]
GH-releasing bioactivity in vitro as compared with Thr^2, Ala^15, Leu^27 -bGRF(1-29)NH2 [5]: deleterious

YTDAIFTNSYRKVLGQLSARKLLQDILNR-NH2 [Thr^2,Leu^27-bGRF(1-29)NH2]
remaining at 1 h, 0.03 mM [2, 7]: 75.6%

bGRF(1-14)NH2 [reference compound]
In vivo relative potency iv (Steers [3]; STUDY I, steers, iv 0.01 nmol/kg, area under serum GH curve, 2 hrs after treatment, native bGRF standard = 100): 100
